pIC50: −log10 of the molar value.
Columns and labels:
[1] = test system: spontaneous intestinal adenoma formation; assay: C57BL/6J-APC Min-mouse model of human adenomatous polyposis coli; type: in vivo, C57BL/6J-Apc min mice; conditions: 100 mg/kg orally q.d., versus vehicle-treated group
Procedure: The ability of Compound 50 to inhibit angiogenesis and tumor growth was tested in a spontaneous tumor model. the pre-cancerous polyp formation in the mouse model of human intestinal tumorigenesis.
Transgenic C57BL/6J-Apc min mice heterozygous for a dominant nonsense Apc mutation are highly susceptible to spontaneous intestinal adenoma formation (homozygous mice are not viable). One hundred percent of these animals will develop polyps by 12 weeks of age. This model is widely used for studying prevention of intestinal adenoma formation and is well described in the literature (Yang K, Edelmann W, Fan K, et. al. A mouse model of human familial adenomatous polyposis. J Exp Zool. 1997 15; 277(3):245-54).
Female C57BL/6J-Apc^Min mice (Jackson Laboratory, MN), 5 weeks of age, were housed (up to 10 mice per group) for a minimum of one week. Animals were then sorted into treatment groups based on body weight such that the mean body weight for the animals in each group was approximately the same. Small cohorts of animals (n=6) were sacrificed at day 1, before treatment to get a baseline number of polyps (mean polyp number at beginning of study). […]
Animals in the treated group (n=10) were dosed daily with Compound 50 at 100 mg/kg orally q.d. for one week. […] The intestine of each mouse was excised, perfused, stained (0.01% Trypan Blue) and polyps were counted under 10× magnification.

HER2 cytoplasmic domain = molecular target: T1, HER2 cytoplasmic domain (Homo sapiens, UniProt P04626); assay: HER2 Kinase Screening Assay; type: biochemical; conditions: > means no observed 50% inhibition at the indicated test concentration; ~ means approximately 50% inhibition at that concentration
T1 construct: polyhistidine (N)
T1 sequence (P04626 676-1255 limits assumed): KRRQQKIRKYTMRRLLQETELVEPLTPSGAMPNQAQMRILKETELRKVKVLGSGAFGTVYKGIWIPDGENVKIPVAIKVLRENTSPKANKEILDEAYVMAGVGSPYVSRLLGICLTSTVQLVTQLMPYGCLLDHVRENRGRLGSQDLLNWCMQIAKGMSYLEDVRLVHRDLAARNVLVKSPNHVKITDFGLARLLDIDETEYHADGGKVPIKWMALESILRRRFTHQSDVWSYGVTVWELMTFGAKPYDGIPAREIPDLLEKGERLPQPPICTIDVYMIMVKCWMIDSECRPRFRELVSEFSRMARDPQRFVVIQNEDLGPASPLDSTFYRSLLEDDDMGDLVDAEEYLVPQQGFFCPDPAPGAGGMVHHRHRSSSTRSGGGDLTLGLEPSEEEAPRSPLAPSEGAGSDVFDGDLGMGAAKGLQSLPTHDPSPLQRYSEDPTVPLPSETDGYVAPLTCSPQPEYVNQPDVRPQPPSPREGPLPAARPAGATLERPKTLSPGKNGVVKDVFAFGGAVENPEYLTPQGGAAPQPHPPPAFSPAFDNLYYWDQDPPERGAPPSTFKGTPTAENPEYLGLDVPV

HCT-116 colon carcinoma = assay: Inhibition of in vitro cell proliferation (HCT116); type: cell-based, human; conditions: Homo sapiens, HCT-116, 14C-thymidine incorporation;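 further: cells exposed to compound for 24 h, then 14C-thymidine added for a further 24 h and its uptake into DNA counted by scintillation, DMSO-only wells as control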
A375 malignant melanoma = assay: Inhibition of in vitro cell proliferation (A375); type: cell-based, human; conditions: Homo sapiens, A-375, 14C-thymidine incorporation;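 further: cells plated for 24 h, given compound for 24 h, then labelled with 14C-thymidine for another 24 h, with DMSO-only wells as control and counts read by scintillation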
[2] = test system: HeLa cervical adenocarcinoma; assay: Inhibition of in vitro cell proliferation (HeLa); type: cell-based, human; conditions: Homo sapiens, 14C-thymidine incorporation;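 further: cells exposed to compound for 24 h, then labelled 24 h with methyl 14C-thymidine, with uptake into DNA counted by scintillation against DMSO-only control wells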
[3] = molecular target: T2, rat VEGF-R2 kinase domain (Rattus norvegicus, UniProt O08775); assay: VEGF-R2 Screening Assay; type: biochemical; conditions: > means no observed 50% inhibition at the indicated test concentration; ~ means approximately 50% inhibition at that concentration; read-out: IC50 VEGF-R2
T2 construct: amino acids 786-1343 of the rat VEGF-R2 kinase domain; polyhistidine (N)
T2 sequence (O08775 786-1343): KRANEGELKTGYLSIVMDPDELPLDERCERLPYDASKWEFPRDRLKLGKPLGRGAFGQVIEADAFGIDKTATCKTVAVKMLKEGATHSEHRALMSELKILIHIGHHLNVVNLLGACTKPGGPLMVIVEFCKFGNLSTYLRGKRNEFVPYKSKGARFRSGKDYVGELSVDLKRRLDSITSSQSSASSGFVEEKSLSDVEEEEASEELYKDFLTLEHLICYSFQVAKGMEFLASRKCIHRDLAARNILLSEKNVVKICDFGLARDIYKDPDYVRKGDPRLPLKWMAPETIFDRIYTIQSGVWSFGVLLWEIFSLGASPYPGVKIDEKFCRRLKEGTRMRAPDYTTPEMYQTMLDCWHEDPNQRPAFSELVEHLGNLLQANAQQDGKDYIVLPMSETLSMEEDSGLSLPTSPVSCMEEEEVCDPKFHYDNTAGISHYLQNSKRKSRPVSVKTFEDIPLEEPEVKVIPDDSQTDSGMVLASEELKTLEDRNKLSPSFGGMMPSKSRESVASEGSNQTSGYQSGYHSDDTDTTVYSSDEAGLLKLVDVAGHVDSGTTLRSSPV

RET cytoplasmic domain = molecular target: T3, RET cytoplasmic domain (Homo sapiens, UniProt P07949); assay: RET Kinase Screening Assay; type: biochemical
T3 construct: the RET cytoplasmic domain consisting of the last 492 amino acids of the intracellular domain; histidine tag (N); made in house; host or cells: Hi5 insect cells
T3 sequence (P07949 658-1114 limits assumed): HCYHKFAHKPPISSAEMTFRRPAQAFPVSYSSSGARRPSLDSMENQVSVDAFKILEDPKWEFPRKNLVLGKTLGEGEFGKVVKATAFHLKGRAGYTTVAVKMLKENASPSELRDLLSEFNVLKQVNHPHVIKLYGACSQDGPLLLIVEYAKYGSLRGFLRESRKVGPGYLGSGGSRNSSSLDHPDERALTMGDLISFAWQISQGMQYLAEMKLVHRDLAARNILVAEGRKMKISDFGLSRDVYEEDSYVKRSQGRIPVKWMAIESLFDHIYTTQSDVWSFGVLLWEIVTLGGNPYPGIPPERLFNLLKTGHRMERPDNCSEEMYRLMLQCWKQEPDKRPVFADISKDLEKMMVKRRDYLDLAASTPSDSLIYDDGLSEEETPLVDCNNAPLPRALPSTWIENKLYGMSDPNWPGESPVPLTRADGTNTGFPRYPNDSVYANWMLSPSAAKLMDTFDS

murine Aurora-A = molecular target: T4, murine Aurora-A (Mus musculus, UniProt P97477); assay: Aurora-A Screening Assay; type: biochemical
T4 construct: replaced with the full length protein encoding the murine Aurora-A; made in house; host or cells: sf9 insect cells
T4 sequence (P97477 1-395): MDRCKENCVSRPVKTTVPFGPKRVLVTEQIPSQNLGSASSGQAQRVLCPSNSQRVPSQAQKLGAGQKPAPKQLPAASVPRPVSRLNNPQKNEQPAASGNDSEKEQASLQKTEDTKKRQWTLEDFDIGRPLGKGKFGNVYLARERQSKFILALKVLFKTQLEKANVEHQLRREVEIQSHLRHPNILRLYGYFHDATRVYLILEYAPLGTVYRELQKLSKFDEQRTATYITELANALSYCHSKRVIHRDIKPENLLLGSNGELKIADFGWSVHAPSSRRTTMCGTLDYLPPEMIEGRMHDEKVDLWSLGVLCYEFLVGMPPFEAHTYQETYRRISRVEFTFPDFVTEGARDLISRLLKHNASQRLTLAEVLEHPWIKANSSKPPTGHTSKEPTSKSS

CDK1:Cyclin-B = molecular target: T5, CDK1:Cyclin-B (Homo sapiens, UniProt P06493); assay: CDK1 Screening Assay; type: biochemical
T5 construct: purchased New England Biolabs, Beverly, Mass; 6020; host or cells: insect cells
T5 sequence (P06493 whole entry): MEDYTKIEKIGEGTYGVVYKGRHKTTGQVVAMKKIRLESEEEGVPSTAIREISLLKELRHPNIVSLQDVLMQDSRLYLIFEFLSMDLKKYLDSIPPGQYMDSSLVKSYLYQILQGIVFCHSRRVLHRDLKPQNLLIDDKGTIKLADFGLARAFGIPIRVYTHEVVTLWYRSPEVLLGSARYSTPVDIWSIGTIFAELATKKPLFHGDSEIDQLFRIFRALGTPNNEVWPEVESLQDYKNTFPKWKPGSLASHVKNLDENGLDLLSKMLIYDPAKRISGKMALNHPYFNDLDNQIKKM
T5 sequence (P14635 whole entry partner): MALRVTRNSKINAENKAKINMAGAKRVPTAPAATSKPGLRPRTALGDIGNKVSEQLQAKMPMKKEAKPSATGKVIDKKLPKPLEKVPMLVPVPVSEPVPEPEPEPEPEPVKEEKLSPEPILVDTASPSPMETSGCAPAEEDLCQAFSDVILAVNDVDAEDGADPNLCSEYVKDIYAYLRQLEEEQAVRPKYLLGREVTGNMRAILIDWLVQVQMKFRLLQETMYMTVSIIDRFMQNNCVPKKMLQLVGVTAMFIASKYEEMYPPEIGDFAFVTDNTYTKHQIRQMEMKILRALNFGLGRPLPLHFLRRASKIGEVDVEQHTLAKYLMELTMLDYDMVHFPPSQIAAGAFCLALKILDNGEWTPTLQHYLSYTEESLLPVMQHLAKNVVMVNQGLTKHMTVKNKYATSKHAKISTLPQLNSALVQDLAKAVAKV

| pIC50 (HER2 cytoplasmic domain) | IC50 (HCT-116 colon carcinoma) [µM] | IC50 (A375 malignant melanoma) [µM] | IC50 [2] [µM] | pIC50 [3] | pIC50 (RET cytoplasmic domain) | pIC50 (murine Aurora-A) | pIC50 (CDK1:Cyclin-B) | Compound | body weights at study end [1] |
| --- | --- | --- | --- | --- | --- | --- | --- | --- | --- |
|  |  |  |  |  |  |  |  | 1-{4-[6-amino-5-(methoxyimino-methyl)-pyrimidin-4-yloxy]-2-chloro-phenyl}-3-ethyl-urea [Cpd 50] | comparable |
| 5.83 | 4.5 | 2.61 | 4.18 | 7.19 | 5.09 | < 5.00 | < 4.00 | Cc1cc2c(F)c(Oc3ncnc(N)c3C=NOCCCN3CCCC3)ccc2[nH]1 [Cpd 18, 4-amino-6-(4-fluoro-2-methyl-1H-indol-5-yloxy)-pyrimidine-5-carbaldehyde O-(3-pyrrolidin-1-yl-propyl)-oxime] |  |

Source: patent US8013153B2, “Substituted pyrimidine kinase inhibitors” (Janssen Pharmaceutica, N.V., priority 2006, dated 2011)
